For data set [1], the target named is T1, AtCLCa (Arabidopsis thaliana, UniProt P92941).
T1 sequence (P92941 1-775): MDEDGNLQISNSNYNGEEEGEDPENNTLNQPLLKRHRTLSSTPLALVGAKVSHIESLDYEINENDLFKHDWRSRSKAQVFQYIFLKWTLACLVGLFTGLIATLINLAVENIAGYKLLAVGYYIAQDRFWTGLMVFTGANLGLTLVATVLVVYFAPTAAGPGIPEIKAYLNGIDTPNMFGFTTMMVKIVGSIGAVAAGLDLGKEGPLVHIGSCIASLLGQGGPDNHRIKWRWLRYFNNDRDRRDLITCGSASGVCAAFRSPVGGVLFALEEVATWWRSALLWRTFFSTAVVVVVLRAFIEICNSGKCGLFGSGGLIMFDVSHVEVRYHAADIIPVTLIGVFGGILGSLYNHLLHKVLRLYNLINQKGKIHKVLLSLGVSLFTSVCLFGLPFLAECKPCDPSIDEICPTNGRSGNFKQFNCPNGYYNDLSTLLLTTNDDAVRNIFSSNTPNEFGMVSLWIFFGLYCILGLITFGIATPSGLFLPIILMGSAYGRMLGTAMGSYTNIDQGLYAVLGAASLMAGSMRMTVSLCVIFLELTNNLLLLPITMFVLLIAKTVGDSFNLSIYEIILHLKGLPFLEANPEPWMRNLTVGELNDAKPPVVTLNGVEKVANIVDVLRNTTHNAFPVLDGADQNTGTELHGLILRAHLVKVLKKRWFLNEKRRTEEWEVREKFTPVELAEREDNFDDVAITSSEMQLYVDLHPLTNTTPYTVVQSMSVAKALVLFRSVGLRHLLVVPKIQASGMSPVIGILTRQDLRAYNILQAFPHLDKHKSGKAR
As to the kind of experiment: whole-cell patch clamp, HEK293T. Type of data set: cell-based. On the set-up: gene CLC-A; full-length, homodimer; patch clamp: pKH3 vector in HEK293T. Particulars: 5 mM in pipette (cytosolic side); nitrate bath; pH 7.4. In general terms: In patch-clamp work, channel activity is measured electrically.

Data set [2] addresses T1, AtCLCa. The data set can be described thus: whole-cell patch clamp, HEK293T. Type of data set: cell-based. On the set-up: gene CLC-A; full-length, homodimer; patch clamp: pKH3 vector in HEK293T. The conditions noted are these: pipette (cytosolic side); pH 7.4.
Data set [3] addresses T1, AtCLCa. As to the kind of experiment: cryo-EM structure, […] Å. It counts as binding. Also noted: gene CLC-A; full-length, homodimer; structures: Pichia pastoris GS115, C-terminal GFP-6xHis tag cut by TEV, MSP1D1 nanodiscs; patch clamp: pKH3 vector in HEK293T. Particulars: Scen and Sint sites; 150 mM NaNO3, pH 8.0.
Data set [4] concerns the molecule itself. The data set can be described thus: cryo-EM structure; AtCLCa in MSP1D1 nanodiscs with soybean polar lipid; 20 mM Tris pH 8.0 with 150 mM NaCl (AtCLCa-Cl-) or 150 mM NaNO3 (AtCLCa-NO3-); C2 symmetry applied.

With `Nc1ncnc2c1ncn2[C@@H]1O[C@H](COP(=O)(O)O)[C@@H](O)[C@H]1O` [AMP], in data set [1], the “inhibition of NO3^- currents at 5 mM” value was “ADP produced a weak inhibition while AMP induced a negligible inhibition”.
Consider `Nc1ncnc2c1ncn2[C@@H]1O[C@H](COP(=O)(O)OP(=O)(O)OP(O)(O)=S)[C@@H](O)[C@H]1O` [ATP-γ-S], for which, in data set [2], the inhibition of currents result is “ATP-γ-S induced an inhibition comparable with ATP”.
As to `Nc1ncnc2c1ncn2[C@@H]1O[C@H](COP(=O)(O)OP(=O)(O)O)[C@@H](O)[C@H]1O` [ADP], the “inhibition of NO3^- currents at 5 mM” value in data set [1] is recorded as “ADP produced a weak inhibition while AMP induced a negligible inhibition”.
As for `O=[N+]([O-])O` [NO3^−], the “cryo-EM structure, 3.2 Å” value in data set [3] is “Scen and Sint were found of fair densities, which likely corresponds to the bound NO3^−”.

B1: Arabidopsis thaliana CLCa (AtCLCa) transporter (natural protein, UniProt P92941 1-775, looked up)
chain: MDEDGNLQISNSNYNGEEEGEDPENNTLNQPLLKRHRTLSSTPLALVGAKVSHIESLDYEINENDLFKHDWRSRSKAQVFQYIFLKWTLACLVGLFTGLIATLINLAVENIAGYKLLAVGYYIAQDRFWTGLMVFTGANLGLTLVATVLVVYFAPTAAGPGIPEIKAYLNGIDTPNMFGFTTMMVKIVGSIGAVAAGLDLGKEGPLVHIGSCIASLLGQGGPDNHRIKWRWLRYFNNDRDRRDLITCGSASGVCAAFRSPVGGVLFALEEVATWWRSALLWRTFFSTAVVVVVLRAFIEICNSGKCGLFGSGGLIMFDVSHVEVRYHAADIIPVTLIGVFGGILGSLYNHLLHKVLRLYNLINQKGKIHKVLLSLGVSLFTSVCLFGLPFLAECKPCDPSIDEICPTNGRSGNFKQFNCPNGYYNDLSTLLLTTNDDAVRNIFSSNTPNEFGMVSLWIFFGLYCILGLITFGIATPSGLFLPIILMGSAYGRMLGTAMGSYTNIDQGLYAVLGAASLMAGSMRMTVSLCVIFLELTNNLLLLPITMFVLLIAKTVGDSFNLSIYEIILHLKGLPFLEANPEPWMRNLTVGELNDAKPPVVTLNGVEKVANIVDVLRNTTHNAFPVLDGADQNTGTELHGLILRAHLVKVLKKRWFLNEKRRTEEWEVREKFTPVELAEREDNFDDVAITSSEMQLYVDLHPLTNTTPYTVVQSMSVAKALVLFRSVGLRHLLVVPKIQASGMSPVIGILTRQDLRAYNILQAFPHLDKHKSGKAR
notes: Arabidopsis thaliana CLCa, Uniprot P92941, full-length gene; C-terminal GFP-6xHis tag was fused by a short linker with a TEV protease site and cut off with TEV; residues of the linker may be left; also called AtCLCa-Cl-; AtCLCa-NO3-; source: Pichia pastoris GS115, purified (anti-GFP nanobody resin, TEV digestion, SEC), reconstituted into MSP1D1 nanodiscs; not shown: GFP, C-terminal, cleaved; …
Usually stoichiometry N stands for a count of units in the complex or per binding partner. As for B1, the “stoichiometry N” value in data set [4] came out at 2.

(Values after paper PMC10423218, “Molecular mechanism underlying regulation of Arabidopsis CLCa transporter by nucleotides and phospholipids” (Nature Communications, 2023).)
